Laboratory results published in EP0791056B1, “LIPID-CLEAVAGE ENZYME COMPLEX” (priority 1994, dated 1996).

What was measured:
stimulierten humanen PBL [1] = experiment: Intracellular concentrations of AZT and AZT nucleotides (radioimmunoassay) in stimulated human PBL; details: for maximale intrazelluläre Konzentrationen an freiem AZT: without alkaline phosphatase; for maximale Konzentrationen an AZT und phosphorylierten AZT-Nukleotiden: with alkaline phosphatase
Text: Zur Bestimmung der intrazellulären Konzentrationen an AZT und/oder AZT-Nukleotiden nach Inkubation mit AZT-DMDOPE bzw. AZT wurden humane PBL aus "Buffy coat" isoliert.
Hierfür wurde "Buffy-coat" von gesunden Spendern gemischt und durch Zentrifugation in einem isotonischen Medium mit einer Dichte von 1.077 g/ml fraktioniert. Da mononukleare Blutzellen (Monozyten und Lymphozyten) eine geringere Dichte als Erythrozyten und polymorphkernige Granulozyten haben, bilden sie einen Ring an der Grenze zwischen Trennmedium und Probe und können mit Hilfe einer Pipette abgenommen werden. Erythrozyten und polymorphkernige Granulozyten sedimentieren aufgrund ihrer höheren Dichte durch das Medium und lassen sich somit von PBL separieren. Zur Stimulation der Zellproliferation wurde Phytohämaglutinin A (Mukoprotein) (PHA-M), der mitogene Lektinextrakt aus der roten Feuerbohne (Phaseolus vulgaris), eingesetzt. Phytohämagglutinin ist eine Familie von 5 Isolektinen, die als Tetramere vorliegen. Die Untereinheiten bestehen aus einem lymphozytenreaktiven Typ-L und einem erythrozytenreaktiven Typ-E. Typ-L hat eine hohe Affinität zu Lymphozytenoberflächenrezeptoren und ist somit verantwortlich für die mitogenen Eigenschaften. Die Stimulation der Lymphozyten wurde in KPMI 1640 Komplettmedium III für 72 h bei 37 °C und 5 % CO2 durchgeführt. Nach Beendigung der Stimulation wurden zur Erhöhung der Zellzahl die Zellen für weitere 24 h in RPMI 1640 Komplettmedium IV kultiviert.
Zur Bestimmung der intrazellulären Konzentrationen an AZT und AZT-Nukleotiden wurden die Zellen in RPMI 1640 Komplettmedium II mit einer Dichte von 1 x 10^6 Zellen/ml in Gewebekulturflaschen (50 ml/25 cm^2) überführt, und in Anwesenheit von 0.03 bzw. 0.3 µg AZT/ml (Charge 15) und 1 bzw. 10 µg AZT-DMDOPE/ml für 1 - 24 h inkubiert.
Die Kulturen wurden anschließend für 1, 3, 6 und 24 h bei 37 °C und 5 % CO2 inkubiert. AZT und seine Nukleotide wurden anschließend mit 60 % Methanol extrahiert. Die extrahierten Nukleotide wurden mit alkalischer Phosphatase quantitativ zu AZT dephosphoryliert, da nur AZT, nicht jedoch die entsprechenden Nukleotide mit Hilfe eines Radioimmuno-Assays detektiert werden kann.
Die Konzentrationen an intrazellulärem AZT, die mit Hilfe des Radioimmuno-Assays bestimmt wurden, setzten sich dementsprechend aus der des AZT und den der AZT-Nukleotide zusammen. Eine separate Quantifizierung der Konzentrationen an AZT-MP, AZT-DP und AZT-TP wurde nicht durchgeführt.
Diese Experimente wurden an stimulierten humanen PBL durchgeführt.
Hierfür wurden Zellsuspensionen mit einer Dichte von 10^6 Zellen/ml mit 1 bzw. 10 µg AZT-DMDOPE/ml für 6 bzw. 24 h bei 37 °C und 5 % CO2 inkubiert.
Zur quantitativen Bestimmung von AZT wurde ein kommerzieller ^125J-AZT RIA Test-Kit verwendet. Puffer und Lösungen wurden gemäß den Angaben des Herstellers angesetzt und im Test-Kit eingesetzt. Die Reaktionsansätze wurden nach untenstehendem Schema (Tab. ) pipettiert, vorsichtig gemischt und für 2 h bei Raumtemperatur inkubiert. Anschließend wurden zur Präzipitation des Komplexes aus ^125J-AZT und des AZT-Antikörpers (aus Kaninchen) 500 µl des Ziege-Anti-Kaninchen-Antikörpers hinzugefügt. Die Ansätze wurden gemischt und erneut bei Raumtemperatur für 30 min inkubiert.

stimulierten humanen PBL [2] = experiment: Intracellular decay kinetics of AZT and AZT nucleotides after removal of the incubation solution; format: in vitro ADME, human
Procedure: Stimulierte humane PBL wurden für 24 h mit 0.3 µg AZT/ml bzw. 10 µg AZT-DMDOPE/ml inkubiert. Anschließend wurden 1 x 10^7 Zellen in Gewebekulturflaschen (50 ml/25 cm^2) mit RPMI 1640 Komplettmedium I überführt. Nach 1, 3, 6, 24 und 48 h wurde AZT und die AZT-Nukleotide aus der zellulären Matrix extrahiert. Nach einer Behandlung mit alkalischer Phosphatase wurde mit Hilfe des Radioimmuno-Assays die Konzentration an AZT bestimmt.

[3] = test system: Zellhomogenate humaner PBL; experiment: Enzymatic cleavage of [14C]-AZT-DMDOPE by cell homogenates, TLC of metabolites; format: in vitro ADME, human
Procedure: Die Spaltung von AZT-DMDOPE wurde mit Hilfe eines Enzym-Assays mit [^14C]-AZT-DMDOPE und AZT-DMDOPE als Substrat untersucht. Als Enzymquelle wurden zunächst Zellhomogenate von CEM-SS-Zellen und humanen PBL verwendet. Tab.
Letztere wurden sowohl nach Stimulation mit PHA-M als auch in nichtstimuliertem Zustand direkt nach ihrer Isolierung homogenisiert und im Enzym-Assay eingesetzt.
Zur Herstellung der Zellhomogenate wurden Zellsuspensionen mit einer Dichte von 5 x10^7 Zellen/ml 50 mM Tris (pH 7.4) im Glashomogenisator mechanisch aufgeschlossen. Der Zellaufschluß wurde hierbei im Umkehr-Phasenkontrast-Mikroskop optisch kontrolliert. Tab.
Zunächst wurde 1 ml dieses Zellhomogenales in dem Enzym-Assay ohne vorherige Bestimmung der Proteinkonzentration eingesetzt.
Zur Gewährleistung einer Substratsättigung wurden weitere 50 nmol der nichtradioaktiv markierten Verbindung hinzugefügt. [^14C]-AZT-DMDOPE trägt die radioaktive Markierung im Thioetherlipidteil und erlaubt somit eine eindeutige Identifikation der potentiellen Metabolits [^14-C]DMDOP.
Die Ansätze wurden für 1, 3, 6 und 24 h im Wasserbad bei 37 °C inkubiert. Als Vergleich wurde ein Ansatz ohne Zugabe von Zellhomogenat mitgeführt. Anschließend wurden die Spaltprodukte mit Diethylether:2-Propanol (9:1, v/v) extrahiert und dünnschichtchromatographisch im IBA- und IBAE-System analysiert (Abb. 18). […]

[4] = 10 µg AZT-DMDOPE/ml, after 24 h

CCCCCCCCCCCCSCC(COP(=O)(O)OC[C@H]1O[C@@H](n2cc(C)c(=O)[nH]c2=O)C[C@@H]1N=[N+]=[N-])OCCCCCCCCCC (stereo partly shown) [AZT-DMDOPE, (3'-Desoxy-3'-azidothymidin)-5'-phosphorsäure-(3-dodecyl-mercapto-2-decyloxy)-propylester]
maximale intrazelluläre Konzentrationen an freiem AZT (stimulierten humanen PBL [1]; 1 µg AZT-DMDOPE/ml, after 6 h): 0.03 ng/10^6 Zellen | maximale Konzentrationen an AZT und phosphorylierten AZT-Nukleotiden (stimulierten humanen PBL [1]; 1 µg AZT-DMDOPE/ml, after 24 h): 3.85 ng/10^6 Zellen | maximale Konzentrationen an AZT und phosphorylierten AZT-Nukleotiden (stimulierten humanen PBL [1]; [4]): 6.41 ng/10^6 Zellen | maximale intrazelluläre Konzentrationen an freiem AZT (stimulierten humanen PBL [1]; [4]): 0.15 ng/10^6 Zellen | intrazellulärer Spiegel an AZT und seiner Nukleotiden, Verlauf (stimulierten humanen PBL [1]; 1 bzw. 10 µg AZT-DMDOPE/ml, whole incubation time 1 - 24 h): stetig steigender | intrazelluläre Spiegel im Vergleich zu AZT (stimulierten humanen PBL [1]; after 24 h incubation, equipotent concentrations): identisch | intrazelluläre Konzentrationen an AZT und AZT-Nukleotiden im Vergleich zur äquipotenten Konzentration an AZT (stimulierten humanen PBL [1]; incubation time 18 - 48 h, further experiments): größer | um Faktor höhere Konzentration an phosphoryliertem AZT im Vergleich zu äquipotenter Konzentration an AZT (stimulierten humanen PBL [2]; 10 µg AZT-DMDOPE/ml vs. 0.3 µg AZT/ml): 4.5 | konstanter Wert der intrazellulären Konzentrationen an AZT und AZT-Nukleotiden (stimulierten humanen PBL [2]; 24 h preincubation with 10 µg AZT-DMDOPE/ml, reached after 3 h, constant over 48 h): 1.80 ng/10^6 Zellen | Metabolisierung von AZT-DMDOPE [3]: zu DMDOP und AZT-MP metabolisiert
